Source: patent US10633448B2, “IGF-1R antibody-drug-conjugate and its use for the treatment of cancer” (PIERRE FABRE MEDICAMENT, priority 2014, dated 2020)

Experiments:
[1] = tested on: MDA-MB-231 (breast adenocarcinoma) cells; experiment: ATPlite antiproliferative assay, MDA-MB-231; assay type: cell-based, human; details: 72 h drug treatment
Description: A549 (Non Small Cell Lung Cancer—ATCC CCL-185) and MDA-MB-231 (breast adenocarcinoma—ATCC HTB-26) cells were cultured in Minimum Essential Medium Eagle (MEM) with 5% fetal calf serum (FCS) and Dulbecco's modified Eagle Medium (DMEM) with 10% FCS respectively. MCF7 (breast ductal carcinoma—ATCC HTB-22) and SN-12C (kidney carcinoma—ATCC) cells were maintained in RPMI1640 medium (without phenol red for MCF7 cells) containing 10% FCS. All the media were supplemented with fungizone (1.25 μg/mL) and penicillin-streptomycin (100 U/100 μg/mL). Cells were cultured under standard conditions in an incubator at 37° C., 5% CO2 and 95% atmospheric humidity.
Selected drugs were investigated for their antiproliferative activity using an ATPlite proliferation assay (Perkin Elmer, Villebon sur Yvette, France) on a comprehensive panel of 4 cell lines. […] On day 4, cell viability was evaluated by dosing the ATP released by viable cells. The number of viable cells was analyzed in comparison with the number of solvent treated cells. The EC50 values were determined with curve fitting analysis (non linear regression model with a sigmoidal dose response, variable hill slope coefficient), performed with the algorithm provided by the GraphPad Software (GraphPad Software Inc., CA, USA).

lysosome functions = experiment: Inhibition of Ab degradation with lysosome inhibitor; assay type: cell-based; details: cells with 10 μg/ml Ab, 2 h at 37° C.
Description: In order to confirm that antibodies reached the lysosome were they are degraded, cells were treated or not with bafilomycine A1, a potent inhibitor of lysosome functions. Cells were then incubated with 10 μg/ml of Ab to be tested at 4° C., washed and incubated for 2 h at 37° C. The internalized Ab was detected after cell permeabilisation using a secondary anti-mouse IgG-Alexa 488 Ab.

Molecule | EC50 [1] | degradation of intracellular Ab (lysosome functions)
methyl (S)-2-((2R,3R)-3-((S)-1-((3R,4S,5S)-4-((S)-2-((S)-2-((3-aminobenzyl)(methyl)amino)-3-methylbutanamido)-N,3-dimethylbutanamido)-3-methoxy-5-methylheptanoyl)pyrrolidin-2-yl)-3-methoxy-2-methylpropanamido)-3-phenylpropanoate, trifluoroacetic acid [Compound 15] | 0.17 nM | 
CO/C1=C\C(C)=C\[C@@H](C)[C@@H](O)[C@@H](C)C/C(C)=C/C=C/[C@H](OC)[C@@H]([C@@H](C)[C@@H](O)[C@H](C)[C@@]2(O)C[C@@H](O)[C@H](C)[C@@H](C(C)C)O2)OC1=O [bafilomycine A1] |  | prevented the degradation of intracellular Ab
